Test results as given in patent publication US4863925A, “Cyclohexanedione derivative for hepatic disorders and a process for producing the same” (Nihon Nohyaku Co., Ltd., priority 1986, dated 1989).

Key:
[1] = tested on: hepatic disorder caused by carbon tetrachloride; experiment: Effect of suppressing hepatic disorder caused by carbon tetrachloride (Test Example 1); type: in vivo, mice (dd-strain, male); set-up: key to Liver injury index: 0 = healthy, 2 = slight, 4 = evident injury, 6 = serious injury; conditions: 30 mg/kg p.o., 6 h before CCl4 0.05 ml/kg p.o., 24 h after CCl4, mean of five mice; for Liver injury index: 0 healthy, 2 slightly affected, 4 evidently observed injury, 6 serious injury; for P-GPT (plasma glutamic pyruvic transaminase activity): Reitman-Frankel, 2,000 or higher calculated as 2,000
Method: Effect of suppressing hepatic disorder caused by carbon tetrachloride. […] The animals were sacrificed 24 hours after the administration of carbon tetrachloride, and the extent of liver injury was examined. On the other hand, blood was collected from the animal at the time of the sacrifice, and centrifuged to obtain plasma. The plasma glutamic pyruvic transminase (GPT) activity was determined according to the method of Reitman-Frankel. The activity was expressed in terms of Karmen Units (K.U.). The conditions of the liver were expressed in terms of liver injury index as follows. |Liver injury index | Condition of liver |0 Healthy liver |2 Slightly affected |4 Evidently observed injury |6 Serious injury Mice were used in groups of five of test were represented by the mean value. When the GPT activity was 2,000 units or higher, or further determination was made, the activity was calculated as 2,000 units for reasons of convenience.

[2] = acute oral toxicity (LD50); conditions: in vivo, male rat
Method: For example, LD50 value (acute oral toxicity to male rat) of the compound No. 55 is more than 1,000 mg/kg.

Row | Compound | Liver injury index [1] | P-GPT (plasma glutamic pyruvic transaminase activity) [1] | LD50 [2]
1 | COc1ccc(C2CC(=O)C(=C3SC4C(S3)N(C)CCN4C)C(=O)C2)cc1 (centres unmarked) [compound 55] | 0.3 | 107 K.U. | > 1000 mg/kg
2 | CN1CCN(C)C2SC(=C3C(=O)CC(C)(C)CC3=O)SC21 (centres unmarked) [Compound No. 4] | 0 | 11 K.U. | 
